We go through nine molecules from patent US5994334A, “Androgen synthesis inhibitors” (priority 1997, dated 1999).

Each structure is given as a SMILES string. Entries after “also recorded” stand apart in the source; their conditions may differ. Where two headings read alike, the source gives them in different places.

Experiment [1] deals with 17α-hydroxylase/C17,20-lyase. The following applies: read-out: Ki (literature); cited from earlier work.
In experiment [2] the test system is LNCaP human prostatic cancer cell line. In words: Androgen-dependent growth of LNCaP cells. The conditions noted are these: for reversal of DHT-stimulated LNCaP growth (in words): 0.03 nM DHT; for reversal of testosterone-stimulated LNCaP growth (in words): inhibitor 0.3-5 μM, 9 days; for stimulation of LNCaP cell proliferation (in words): hydroxyflutamide 0.3-1 μM. On the procedure: The ability of various inhibitors to reverse the stimulatory effect of testosterone on the growth of the LNCaP human prostatic cancer cell line was tested by comparing cell number in wells treated for 9 days with either drug vehicle only (control), 0.1 nM testosterone only, or 0.1 nM testosterone with inhibitor at 0.3, 1, 2.5, or 5 μM.

For experiment [3], the system named is human prostatic tissue (BPH or prostate cancer). In words: Prostate tissue in histoculture, DNA synthesis ([3H]-thymidine uptake). The following applies: for inhibition of testosterone-stimulated DNA synthesis (in words), 0.3 μM: inhibitor 0.3 μM; for reversal of testosterone-stimulated DNA synthesis (in words), 1 μM: inhibitor 1 μM, testosterone 1 μM, FIG. 1. On the procedure: We recently developed a histoculture method to evaluate the growth inhibiting properties of the compounds on human prostatic tissue. […] The tissue samples were then incubated for 3 days in fresh medium/treatment containing 2 μCi/ml [^3 H]-thymidine. Tissue was then digested and DNA extracted. For each sample, [^3 H]-thymidine uptake was normalized to DNA content. […] This finding is consistent with the compound acting as an antiandrogen. None of the compounds produced an independent effect on DNA synthesis in the absence of added androgens.

Experiment [4] concerns the target T1, Human Prostatic 5α-Reductase (Homo sapiens, UniProt P31213).
T1 sequence (P31213 1-254): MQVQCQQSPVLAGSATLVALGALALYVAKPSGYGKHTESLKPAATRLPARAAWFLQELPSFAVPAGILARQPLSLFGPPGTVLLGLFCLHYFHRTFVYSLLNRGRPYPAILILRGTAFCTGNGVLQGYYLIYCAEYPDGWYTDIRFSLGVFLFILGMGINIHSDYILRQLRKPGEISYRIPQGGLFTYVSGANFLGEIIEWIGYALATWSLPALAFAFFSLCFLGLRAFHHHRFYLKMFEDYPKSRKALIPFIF
In words: Inhibition of human prostatic 5α-reductase (prostatic microsomes, [3H]testosterone). The conditions noted are these: for inhibition at 0.01 µM: read-out: % Inhibition of 5α-reductase, [I] 10 nM; for inhibition at 0.1 µM: read-out: % Inhibition of 5α-reductase, [I] 100 nM.

For experiment [5], the target named is T2, Human Testicular 17α-Hydroxylase (Homo sapiens, UniProt P05093).
T2 construct: incubating human testicular microsomes; from tissue; host or cells: human testis, microsomes
T2 sequence (P05093 1-508): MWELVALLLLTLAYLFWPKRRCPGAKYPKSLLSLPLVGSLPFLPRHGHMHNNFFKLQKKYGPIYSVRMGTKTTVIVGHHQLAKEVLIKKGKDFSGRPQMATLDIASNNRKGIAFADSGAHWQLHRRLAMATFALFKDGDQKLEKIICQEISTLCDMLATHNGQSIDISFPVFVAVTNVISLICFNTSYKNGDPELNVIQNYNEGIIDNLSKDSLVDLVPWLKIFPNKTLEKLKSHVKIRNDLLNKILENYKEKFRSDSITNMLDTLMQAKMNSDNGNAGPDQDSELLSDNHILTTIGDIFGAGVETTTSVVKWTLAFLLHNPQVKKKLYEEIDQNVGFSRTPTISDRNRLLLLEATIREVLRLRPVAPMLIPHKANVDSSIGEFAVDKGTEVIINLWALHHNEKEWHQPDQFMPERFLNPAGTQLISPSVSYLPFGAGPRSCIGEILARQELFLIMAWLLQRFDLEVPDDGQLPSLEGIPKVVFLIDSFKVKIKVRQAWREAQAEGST
In words: Inhibition of human testicular 17α-hydroxylase (pregnenolone substrate, testicular microsomes). It counts as biochemical. As for the experimental part: (§1) The conversion of radiolabeled pregnenolone to 17α-hydroxypregnenolone and DHEA by 17α-hydroxylase/C17,20 -lyase was measured by incubating human testicular microsomes with different concentration of test compounds. Reverse phase HPLC was used to separate and accurately quantify the amount of substrate and metabolites. The 17α-hydroxylase and C17,20 -lyase activities were calculated separately. The activity of 17α-hydroxylase was calculated from the conversion of pregnenolone to 17α-hydroxypregnenolone and DHEA and the activity of C17,20 -lyase was based on the conversion of pregnenolone to DHEA. Although 17α-hydroxypregnenolone is the substrate converted to DHEA by C17,20 -lyase, it has been reported that this 17α-hydroxy intermediate is not released from the enzyme binding site during conversion (Nakajin et al., 1981a,b). Also, there are species differences in substrate requirements. Pregnenolone is the natural substrate rather than progesterone for human testicular 17α-hydroxylase and C17,20 -lyase. Therefore, pregnenolone was used as substrate for measuring the activity of this enzyme complex.

Experiment [6] addresses T3, Human Testicular C17,20-lyase (Homo sapiens, UniProt P05093).
T3 construct: incubating human testicular microsomes; from tissue; host or cells: human testis, microsomes
T3 sequence (P05093 1-508): T2 sequence (P05093 1-508)
In words: Inhibition of human testicular C17,20-lyase (pregnenolone substrate, testicular microsomes). Type of experiment: biochemical. On the procedure:
as §1

Experiment [7] deals with T4, human 17α-hydroxylase/C17,20-lyase (Homo sapiens, UniProt P05093).
T4 construct: incubating human testicular microsomes; from tissue; host or cells: human testis, microsomes
T4 sequence (P05093 1-508): T2 sequence (P05093 1-508)
In words: Inhibition of human testicular 17α-hydroxylase/C17,20-lyase (enzyme complex as a whole). Type of experiment: biochemical. The following applies: for inhibition of 17α-hydroxylase/C17,20-lyase (in words): NI = no inhibition. On the procedure: as §1

[8] abbreviates: Table 1, NI = no inhibition, read-out: IC50 17α-OHase.
[9] abbreviates: Table 1, NI = no inhibition, CI = complete inhibition, read-out: IC50 C17,20 lyase.
Setting [10] is: IC50 5α-reductase, Table 3, NI = no inhibition.

For the molecule `C[C@]12CC[C@H]3[C@@H](CC=C4C[C@@H](O)CC[C@@]43C)[C@@H]1CC[C@@H]2NC1CC1` [17β-(cyclopropylamino)androst-5ene-3-ol], in experiment [1], the inhibition constant (Ki) is 90 nM.

As for `CCN(CC)C(=O)[C@H]1CC[C@H]2[C@@H]3CC[C@H]4N(C)C(=O)CC[C@]4(C)[C@H]3CC[C@]12C` [Compound 4MA, reference compound], in experiment [2], the “reversal of DHT-stimulated LNCaP growth (in words)” value is “dose-dependent reversal”. Further, the “reversal of testosterone-stimulated LNCaP growth at 5 μM (in words)” value in experiment [2] (0.1 nM testosterone, inhibitor 5 μM) is on record as “almost completely reversed”. The “reversal of testosterone-stimulated LNCaP growth (in words)” value in experiment [2] (0.1 nM testosterone) is “dose-dependent reversal”. In experiment [2] (Homo sapiens, LNCaP, 216 h, read-out: concentration reducing the stimulatory effect of testosterone by 50%), the IC50 was at most 1000 nM. Also, in experiment [3], the “inhibition of testosterone-stimulated DNA synthesis (in words), 0.3 μM” value (shortened to “inhibition … 0.3 μM”) is given as “highly effective” and the “reversal of testosterone-stimulated DNA synthesis (in words), 1 μM” value (shortened to “reversal … 1 μM”) was “almost complete reversal”. For the same molecule, in experiment [4] (IC50 5α-reductase, Table 2), the IC50 worked out at 10 nM. Also, in experiment [4], the inhibition at 0.01 µM came to 71.9% and the inhibition at 0.1 µM came out at 92%.

In the case of `C[C@H](O)[C@H]1CC[C@H]2[C@@H]3CCC4=CC(=O)CC[C@]4(C)[C@H]3CC[C@]12C` [Compound I-33], the IC50 came out at 2840 nM in experiment [5] (IC50 17α-OHase); 1430 nM in experiment [6] (IC50 C17,20 lyase); 13 nM in experiment [4] (IC50 5α-reductase); 13 nM in experiment [4] (IC50 5α-reductase, Table 2). Moreover, in experiment [2] (0.1 nM testosterone), the “stimulation of LNCaP cell proliferation (in words)” value was “stimulated cell proliferation”. Besides, the “inhibition … 0.3 μM” value in experiment [3] is “highly effective”. Also, in experiment [3], the “reversal … 1 μM” value is on record as “almost complete reversal”. Further, the inhibition at 0.01 µM in experiment [4] was determined as 28.5%. Besides, in experiment [4], the inhibition at 0.1 µM came out at 87.6%.

As for `C[C@@H](O)[C@H]1CC[C@H]2[C@@H]3CCC4=CC(=O)CC[C@]4(C)[C@H]3CC[C@]12C` [Compound I-34], the “inhibition of 17α-hydroxylase/C17,20-lyase (in words)” value in experiment [7] is “potent inhibition”. Also, the “reversal of DHT-stimulated LNCaP growth (in words)” value in experiment [2] is listed as “stimulation of growth above the level produced by DHT”. The “stimulation of LNCaP cell proliferation (in words)” value in experiment [2] (0.1 nM testosterone) is “stimulated cell proliferation”. In experiment [3], the “inhibition … 0.3 μM” value was “partially effective” and the “reversal … 1 μM” value was “almost complete reversal”. For the same molecule, the IC50 in experiment [4] (IC50 5α-reductase) was 90 nM. Moreover, the IC50 in experiment [4] (IC50 5α-reductase, Table 2) came out at 90 nM. Also, in experiment [4], the inhibition at 0.01 µM was found to be 16.1% and the inhibition at 0.1 µM was found to be 64.5%.

Take `C[C@]12CC[C@H]3[C@@H](CCC4=CC(=O)CC[C@@]43C)[C@@H]1CC[C@@H]2c1c[nH]cn1` [Compound I-41, 17β-(4'-imidazolyl)-androst-4-en-3-one]: the IC50 came out at 59 nM in experiment [5] (setting [8]); 59.4 nM in experiment [5] (Table 3, first figure of 17α-hydroxylase/lyase pair, read-out: IC50 17α-hydroxylase); 59 nM in experiment [5] (first figure of pair, read-out: IC50 17α-hydroxylase); 5 nM in experiment [6] (setting [9]); 5.61 nM in experiment [6] (Table 3, second figure of pair, CI = complete inhibition, read-out: IC50 lyase); 5 nM in experiment [6] (second figure of pair, read-out: IC50 C17,20-lyase). Further, the IC50 in experiment [4] (IC50 5α-reductase) and in experiment [4] (setting [10]) was 122 nM each time. Besides, the “reversal … 1 μM” value in experiment [3] is listed as “without effect”.

As for `CC(=NO)[C@H]1CC[C@H]2[C@@H]3CCC4=CC(=NO)CC[C@]4(C)[C@H]3CC[C@]12C` [Compound I-43], the IC50 came out at 90 nM in experiment [5] (setting [8]); 70 nM in experiment [6] (setting [9]); 1270 nM in experiment [4] (read-out: IC50 5α-reductase, Table 2). In addition, the “inhibition of 17α-hydroxylase/C17,20-lyase (in words)” value in experiment [7] is “decreased activity”. Moreover, the “reversal … 1 μM” value in experiment [3] is reported as “without effect”. Moreover, the “inhibition of 5α-reductase (in words)” value in experiment [4] (NI = no inhibition) is recorded as “decreased activity”.

Regarding `C[C@@H](O)C1=CC[C@H]2[C@@H]3CCC4=CC(=O)CC[C@]4(C)[C@H]3CC[C@]12C` [Compound L-10, 20β-hydroxy-pregna-4,16-dien-3-one], the inhibition at 0.1 µM amounted to 14.9% in experiment [5] (read-out: % Inhibition 17α-hydroxylase, [I] = 100 nM); 2.28% in experiment [6] (read-out: % Inhibition C17,20-lyase, [I] = 100 nM); 90.7% in experiment [4]. Also, the inhibition at 0.4 µM in experiment [5] (read-out: % Inhibition 17α-hydroxylase, [I] = 400 nM) amounted to 8.19%; in experiment [6] (read-out: % Inhibition C17,20-lyase, [I] = 400 nM) it was 8.48%. In addition, the “reversal of DHT-stimulated LNCaP growth (in words)” value in experiment [2] is given as “not dose-dependent”. In addition, the “reversal of testosterone-stimulated LNCaP growth (in words)” value in experiment [2] (0.1 nM testosterone) is on record as “dose-dependent reversal”. Also, the IC50 stood at 20 nM in experiment [4] (IC50 5α-reductase); 21 nM in experiment [4] (IC50 5α-reductase, Table 2); 21 nM in experiment [4] (setting [10]). Besides, the “inhibition of 5α-reductase (in words)” value in experiment [4] (NI = no inhibition) is on record as “almost equipotent with finasteride”. Moreover, the inhibition at 0.01 µM in experiment [4] is 97%.

As for `CC(=O)C1=CC[C@H]2[C@@H]3CCC4=CC(=O)CC[C@]4(C)[C@H]3CC[C@]12C` [Compound L-13, 16-dehydroprogesterone], the IC50 is 73 nM in experiment [5] (IC50 17α-OHase); 72.7 nM in experiment [5] (IC50 17α-hydroxylase); 73 nM in experiment [5] (IC50 17α-hydroxylase (text)); 24 nM in experiment [6] (IC50 C17,20-lyase); 24 nM in experiment [6] (IC50 C17,20 lyase); 23.7 nM in experiment [6] (IC50 lyase). The IC50 came to 22 nM in experiment [4] (IC50 5α-reductase); 22 nM in experiment [4] (IC50 5α-reductase, Table 2); 21.8 nM in experiment [4] (setting [10]). Moreover, in experiment [7], the “inhibition of 17α-hydroxylase/C17,20-lyase (in words)” value is recorded as “potent inhibitors of both enzymes”. Besides, the “times more potent than ketoconazole” value in experiment [7] (vs ketoconazole) is 10-50 times. The “inhibition of 5α-reductase (in words)” value in experiment [4] (NI = no inhibition) is given as “potent inhibition of 5α-reductase; also recorded: almost equipotent with finasteride”. For the same molecule, the inhibition at 0.1 µM in experiment [4] came to 87.8%. Also, the inhibition at 0.4 µM in experiment [4] (read-out: % Inhibition of 5α-reductase, [I] 400 nM) came out at 96.4%.

`C[C@]12CC[C@H]3[C@@H](CCC4=CC(=O)CC[C@@]43C)[C@@H]1CC[C@@H]2O` [Testosterone, reference compound]: in experiment [2] (Homo sapiens, LNCaP, 216 h, read-out: stimulation of LNCaP growth by testosterone), the fold induction at 0.0001 µM was determined as 2. Besides, the fold induction at 1 µM in experiment [3] (Homo sapiens, read-out: stimulation of DNA synthesis by testosterone) is about 2.
